# Read-outs that look alike come from different tables or passages of the source.
# How the values were obtained:
# [1] = test system: Cdk1 and Cdk2 targets (Rb, Cdc6, PP1a); test: Immunoblot of Cdk1/Cdk2-dependent targets, HaCaT cells; assay type: cell-based, human; conditions: extended exposure (18 hrs)
# Method: Immunoblots of total proteins from synchronized HaCaT cells treated with compounds at time of release (0 hr; beginning of G1 phase) and collected after 18 hrs of exposure. (FIG. 5A) DDK-dependent phosphorylation sites on Mcm2 were analyzed with phospho-specific antibodies. (FIG. 5B) Cdk1- and Cdk2-dependent targets (Rb, Cdc6, and PP1α) were analyzed with phospho-specific antibodies.
# [2] = test system: T1, human CMG helicase (hCMG); test: hCMG helicase fork-unwinding (strand displacement) assay; assay type: biochemical
# T1 construct: made in house; host or cells: High Five insect cells, baculovirus (11 viruses co-infected)
# T1 sequence (P49736 whole entry): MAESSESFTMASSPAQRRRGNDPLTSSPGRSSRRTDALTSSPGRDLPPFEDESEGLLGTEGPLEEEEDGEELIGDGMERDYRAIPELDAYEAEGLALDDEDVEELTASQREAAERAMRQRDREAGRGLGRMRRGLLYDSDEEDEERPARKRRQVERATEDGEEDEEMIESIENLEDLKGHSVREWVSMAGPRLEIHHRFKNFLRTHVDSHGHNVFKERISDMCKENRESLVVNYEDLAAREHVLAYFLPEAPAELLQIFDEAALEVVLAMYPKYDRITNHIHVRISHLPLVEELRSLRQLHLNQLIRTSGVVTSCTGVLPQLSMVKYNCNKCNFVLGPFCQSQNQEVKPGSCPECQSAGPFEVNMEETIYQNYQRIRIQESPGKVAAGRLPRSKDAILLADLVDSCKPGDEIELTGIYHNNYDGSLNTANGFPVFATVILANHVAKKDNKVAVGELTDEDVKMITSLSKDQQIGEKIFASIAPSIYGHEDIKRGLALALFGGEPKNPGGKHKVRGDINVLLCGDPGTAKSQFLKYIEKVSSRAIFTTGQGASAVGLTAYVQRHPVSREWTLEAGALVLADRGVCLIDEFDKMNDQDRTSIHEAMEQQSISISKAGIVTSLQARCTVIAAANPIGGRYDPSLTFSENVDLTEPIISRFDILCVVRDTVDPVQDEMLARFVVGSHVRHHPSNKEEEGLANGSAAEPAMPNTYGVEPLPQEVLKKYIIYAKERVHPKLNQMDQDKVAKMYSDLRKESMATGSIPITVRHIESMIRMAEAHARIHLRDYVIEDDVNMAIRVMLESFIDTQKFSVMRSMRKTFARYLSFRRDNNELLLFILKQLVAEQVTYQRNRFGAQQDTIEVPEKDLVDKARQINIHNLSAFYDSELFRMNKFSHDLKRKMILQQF
# T1 sequence (P25205 whole entry, further chain): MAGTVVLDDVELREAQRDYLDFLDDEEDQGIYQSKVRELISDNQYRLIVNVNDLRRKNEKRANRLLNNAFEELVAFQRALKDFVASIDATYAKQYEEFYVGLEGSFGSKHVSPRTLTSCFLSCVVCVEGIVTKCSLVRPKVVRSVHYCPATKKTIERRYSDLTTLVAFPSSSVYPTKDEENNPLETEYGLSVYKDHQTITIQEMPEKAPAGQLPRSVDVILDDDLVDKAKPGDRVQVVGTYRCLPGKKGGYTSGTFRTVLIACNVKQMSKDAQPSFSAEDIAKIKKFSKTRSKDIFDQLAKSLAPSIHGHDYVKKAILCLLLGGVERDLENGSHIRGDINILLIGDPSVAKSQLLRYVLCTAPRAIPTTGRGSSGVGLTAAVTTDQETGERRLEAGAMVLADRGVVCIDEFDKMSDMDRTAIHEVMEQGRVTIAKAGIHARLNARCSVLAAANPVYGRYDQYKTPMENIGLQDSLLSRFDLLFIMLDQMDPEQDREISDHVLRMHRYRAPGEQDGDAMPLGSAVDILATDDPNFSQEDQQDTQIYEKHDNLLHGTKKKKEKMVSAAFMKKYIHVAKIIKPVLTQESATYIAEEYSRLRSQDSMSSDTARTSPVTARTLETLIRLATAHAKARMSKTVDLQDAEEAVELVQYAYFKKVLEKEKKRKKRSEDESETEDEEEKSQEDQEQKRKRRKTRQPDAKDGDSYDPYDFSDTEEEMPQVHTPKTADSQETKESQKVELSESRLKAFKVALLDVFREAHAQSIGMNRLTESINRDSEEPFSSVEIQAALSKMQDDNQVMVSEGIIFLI
# T1 sequence (P33991 whole entry, further chain): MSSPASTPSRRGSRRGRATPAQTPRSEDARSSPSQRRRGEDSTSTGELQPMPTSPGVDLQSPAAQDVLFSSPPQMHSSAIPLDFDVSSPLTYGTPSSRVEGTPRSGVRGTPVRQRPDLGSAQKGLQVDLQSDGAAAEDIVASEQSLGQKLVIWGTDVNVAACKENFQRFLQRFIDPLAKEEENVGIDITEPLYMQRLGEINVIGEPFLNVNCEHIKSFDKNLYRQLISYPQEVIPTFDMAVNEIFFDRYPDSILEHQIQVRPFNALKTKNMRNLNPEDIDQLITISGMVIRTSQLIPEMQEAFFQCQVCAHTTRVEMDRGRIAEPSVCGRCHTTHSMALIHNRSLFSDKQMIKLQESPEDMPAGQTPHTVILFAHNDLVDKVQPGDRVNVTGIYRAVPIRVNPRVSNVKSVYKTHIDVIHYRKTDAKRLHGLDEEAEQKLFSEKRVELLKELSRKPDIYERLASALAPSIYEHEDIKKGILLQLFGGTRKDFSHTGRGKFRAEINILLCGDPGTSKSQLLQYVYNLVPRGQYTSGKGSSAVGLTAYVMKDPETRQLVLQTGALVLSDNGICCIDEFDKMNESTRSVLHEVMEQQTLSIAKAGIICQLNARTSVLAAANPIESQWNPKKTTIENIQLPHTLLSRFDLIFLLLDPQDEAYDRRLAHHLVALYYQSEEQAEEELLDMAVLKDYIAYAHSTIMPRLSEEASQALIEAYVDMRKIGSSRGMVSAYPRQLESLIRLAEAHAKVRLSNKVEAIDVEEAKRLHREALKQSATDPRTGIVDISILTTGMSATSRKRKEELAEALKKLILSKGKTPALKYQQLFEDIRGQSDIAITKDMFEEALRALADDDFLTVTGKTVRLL
# T1 sequence (P33992 whole entry, further chain): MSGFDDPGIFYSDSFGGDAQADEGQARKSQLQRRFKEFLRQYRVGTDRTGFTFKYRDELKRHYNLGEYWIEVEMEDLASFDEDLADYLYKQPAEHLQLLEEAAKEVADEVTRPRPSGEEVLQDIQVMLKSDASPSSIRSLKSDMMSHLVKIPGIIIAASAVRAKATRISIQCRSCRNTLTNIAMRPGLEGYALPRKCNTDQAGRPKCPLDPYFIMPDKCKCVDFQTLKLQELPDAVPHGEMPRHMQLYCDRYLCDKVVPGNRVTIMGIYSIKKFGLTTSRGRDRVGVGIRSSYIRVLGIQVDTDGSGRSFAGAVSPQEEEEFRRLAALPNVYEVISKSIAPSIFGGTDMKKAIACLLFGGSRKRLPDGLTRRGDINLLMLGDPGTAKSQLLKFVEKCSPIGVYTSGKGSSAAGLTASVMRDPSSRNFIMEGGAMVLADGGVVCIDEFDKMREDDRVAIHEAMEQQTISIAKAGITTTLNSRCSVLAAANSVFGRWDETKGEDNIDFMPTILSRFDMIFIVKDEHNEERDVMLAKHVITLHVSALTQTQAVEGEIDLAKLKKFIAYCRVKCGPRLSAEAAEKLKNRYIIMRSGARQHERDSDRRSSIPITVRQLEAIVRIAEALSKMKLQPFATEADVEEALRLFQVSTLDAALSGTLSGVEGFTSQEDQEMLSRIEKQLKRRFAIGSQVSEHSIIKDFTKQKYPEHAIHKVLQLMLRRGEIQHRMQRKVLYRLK
# T1 sequence (Q14566 whole entry, further chain): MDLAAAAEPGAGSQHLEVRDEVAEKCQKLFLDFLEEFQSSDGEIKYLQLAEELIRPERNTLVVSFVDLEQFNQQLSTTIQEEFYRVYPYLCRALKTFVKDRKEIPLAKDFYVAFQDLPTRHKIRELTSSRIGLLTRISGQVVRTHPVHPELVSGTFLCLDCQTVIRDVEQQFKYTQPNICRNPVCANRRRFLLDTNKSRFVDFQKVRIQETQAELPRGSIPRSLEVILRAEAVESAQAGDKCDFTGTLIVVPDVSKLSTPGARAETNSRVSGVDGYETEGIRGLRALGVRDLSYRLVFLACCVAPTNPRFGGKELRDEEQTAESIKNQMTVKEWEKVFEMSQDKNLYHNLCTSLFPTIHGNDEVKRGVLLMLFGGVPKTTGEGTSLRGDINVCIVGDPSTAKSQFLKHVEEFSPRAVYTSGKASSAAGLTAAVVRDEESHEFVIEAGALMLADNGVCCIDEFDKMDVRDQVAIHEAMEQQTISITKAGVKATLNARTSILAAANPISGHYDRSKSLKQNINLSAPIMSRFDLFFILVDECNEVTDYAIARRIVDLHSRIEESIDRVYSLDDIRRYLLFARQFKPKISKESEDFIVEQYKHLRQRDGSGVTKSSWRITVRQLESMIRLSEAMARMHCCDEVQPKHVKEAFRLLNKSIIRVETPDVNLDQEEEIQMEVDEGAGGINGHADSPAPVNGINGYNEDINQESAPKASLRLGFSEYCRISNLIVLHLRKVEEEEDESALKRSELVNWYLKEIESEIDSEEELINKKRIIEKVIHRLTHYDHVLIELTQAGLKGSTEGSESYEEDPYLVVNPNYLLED
# T1 sequence (P33993 whole entry, further chain): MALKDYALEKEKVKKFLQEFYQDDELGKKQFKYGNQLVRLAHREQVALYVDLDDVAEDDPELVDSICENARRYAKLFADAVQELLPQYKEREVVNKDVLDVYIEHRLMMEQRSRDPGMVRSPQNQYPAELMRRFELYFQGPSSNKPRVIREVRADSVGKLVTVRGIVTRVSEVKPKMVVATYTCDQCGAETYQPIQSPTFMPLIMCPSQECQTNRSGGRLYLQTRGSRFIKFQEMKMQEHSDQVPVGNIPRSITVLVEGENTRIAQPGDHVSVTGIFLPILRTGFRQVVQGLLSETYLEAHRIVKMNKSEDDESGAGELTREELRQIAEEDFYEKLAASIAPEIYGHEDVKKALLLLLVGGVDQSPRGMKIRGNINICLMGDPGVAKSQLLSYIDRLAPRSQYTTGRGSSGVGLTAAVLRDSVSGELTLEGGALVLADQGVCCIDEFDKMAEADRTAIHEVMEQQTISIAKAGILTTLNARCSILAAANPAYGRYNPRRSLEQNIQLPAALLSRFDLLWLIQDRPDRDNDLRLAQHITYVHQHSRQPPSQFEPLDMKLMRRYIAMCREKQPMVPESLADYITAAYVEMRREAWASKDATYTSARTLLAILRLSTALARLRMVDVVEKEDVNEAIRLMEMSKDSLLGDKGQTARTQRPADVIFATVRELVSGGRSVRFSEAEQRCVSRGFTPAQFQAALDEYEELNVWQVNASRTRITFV
# Method: (§1) The human CMG helicase was purified following the established and validated protocol of Hurwitz and colleagues(19,20), with minor modifications. A detailed description of the approach is shown here, to allow for comparisons to the methods described by the Hurwitz group.
# (§2) High Five insect cells (2-3 million cells/ml, 1.5 L), were in cultured in a shaking incubator at 27° C. in suspension with ESF921 serum free medium (Expression Systems, CA; cat. #96-001-01), then co-infected for 60 hrs with 11 baculoviruses expressing human 6His2Flag-Cdc45, the human MCM hexamer (Mcm2, Mcm3, Mcm4, Mem5, Mcm6, Mcm7), and human GINS (GST-Sld5, Psf3, Psf2, and Psf1). Each virus was infected at an MOI of ~10 from individual virus stocks. Infected cells were harvested by centrifugation at 650×g for 5 min at 4° C., washed with cold PBS, frozen on dry ice, and stored at −80° C. until use. The cell pellet (~20 mL) was thawed on ice, resuspended in 45 ml Hypotonic Buffer [20 mM Hepes-NaOH (pH 7.5), 5 mM KCl, 1.5 mM MgCl2] with protease inhibitors (1 mM [COMPOUND LEFT OUT], 1 mM Benzamidine, 0.15 μM Aprotinin, 4 μM Leupeptin, and 1 μM Antipain), and kept on ice for 10 min before lysing by Dounce homogenization (tight fitting, 60 strokes). The cell extract was adjusted to 0.42 M potassium acetate and centrifuged at 43,000×g for 1 hr at 4° C. The cleared lysate was mixed with 0.75 ml glutathione beads (cat. #17-0756-05; GE Healthcare) pre-equilibrated with FEQ buffer [20 mM Hepes-NaOH (pH 7.5), 0.42 M potassium acetate, 5 mM KCl, 1.5 mM MgCl2] and incubated by rotation at 4° C. overnight. Following centrifugation at 290×g at 4° C., the bound glutathione beads were washed four times (15 min each wash) with 40 ml of FW buffer [20 mM Hepes-NaOH (pH 7.5), 0.42 M potassium acetate, 1 mM DTT, 1 mM EDTA, 0.01% NP40, 10% glycerol (vol/vol) with protease inhibitors as above] containing protease inhibitors (as above). Bound proteins were eluted at 4° C. three times (1 hr each elution) with 3.5 ml Q buffer [20 mM Hepes-NaOH (pH 7.5), 1 mM DTT, 1 mM EDTA, 0.01% NP40, 10% glycerol (vol/vol), and protease inhibitors as above] containing 0.15 M potassium acetate and 20 mM reduced glutathione. The eluted fractions were combined and applied to a HiTrap Q-Sepharose FF column (HiTrap Q FF 1 mL, cat. #17505301, Cytiva), pre-equilibrated 3× with 5 ml of Q buffer containing 0.15 M, 0.75 M, 0.15M potassium acetate, in sequence. The Q-Sepharose FF column was washed with 10 ml of FW buffer containing protease inhibitors (as above). The proteins were eluted with 10 ml of Q buffer containing 0.75 M potassium acetate. The eluted fraction was mixed with 0.15 ml of anti-Flag M2 affinity gel/beads and incubated while rotating at 4° C. overnight. After centrifugation at 290×g for 5 min at 4° C., the beads were washed three times with 10 ml PreScission buffer [50 mM Tris-HCl (pH 7.5), 0.15 M NaCl, 1 mM DTT, 1 mM EDTA] for 15 min at 4° C., and eluted at 4° C. three times (1 hr each elution) with 0.2 ml PreScission enzyme buffer containing 0.2 mg/ml 3×-Flag peptides. The combined eluates were incubated with 20 Units of PreScission Protease (GE Healthcare) and 0.1 mL glutathione beads for 4 hr at 4° C. The supernatant was layered onto a 15-40% glycerol gradient [25 mM Tris-HCl (pH 7.5), 50 mM NaCl, 1 mM DTT, 1 mM EDTA, 0.01% NP40, protease inhibitors as above] in a 5 mL ultra-centrifugation tube and centrifuged at 260,000×g for 14 hr at 4° C. Glycerol fractions (0.15 mL each fraction) were collected from bottom of tube and stored at −80° C. until use. Typically, fractions 6-9 contained complete hCMG (~750-800 kDa) and co-migrated with thyroglobulin.
# (§3) Helicase fork-unwinding assays were performed at 37° C. for 1 hr in 20 μL reaction volumes using 2-4 μl of hCMG (~15-30 fmol), in a buffer consisting of 25 mM Hepes-NaOH (pH 7.5), 5 mM NaCl, 0.5 mM ATP, 10 mM magnesium acetate, 1 mM DTT, 0.1 mg/ml bovine serum albumin (BSA), and ~10 fmol of radiolabeled DNA forks (20). […]
# [3] = test system: solid tumor cell lines (NCI-60 set); conditions: cited from earlier work
# [4] = test system: T1, human CMG helicase (hCMG); test: hCMG ATPase activity, FP ADP^2 Transcreener assay; assay type: biochemical; conditions: primary FP ATPase assay
# Method: The fluorescent-polarization (FP) ADP-sensing assays were performed using the Transcreener® ADP^2 FP assay kit (cat #3010-1K, Bellbrook Labs). For hCMG inhibitor screening, assays were performed at 37° C. for 1 hr in 10 μl reactions in a 384-well plate (cat. #4514, Corning) using 2 μL of hCMG (~15 fmol), 25 mM Hepes-NaOH (pH 7.5), 10 mM NaCl, 0.5 mM ATP, 10 mM magnesium acetate, 1 mM DTT, 0.1 mg/ml BSA, and DNA fork substrates. […] Selected inhibitors or samples from a chemical library were added into the reactions when conducting the screening or testing inhibitor effectiveness. The NCI Diversity Set VI chemical library was obtained from the National Cancer Institute (Bethesda, MD).
# The window of sensitivity for the ADP-sensing assays is determined by setting up two 10 μL control samples without any added hCMG helicase: a Low-FP mixture (4 nM ADP Alexa Fluor-633 Tracer alone) and a High-FP mixture (4 nM ADP Alexa Fluor-633 Tracer plus patented anti-ADP^2 Antibody). The amount of ADP^2 Antibody used had to be adjusted to account for the use of 500 μM ATP in our hCMG assays, versus 10 μM ATP in enzyme reactions typically assessed with standard kits prepared by BellBrook Labs. […] This was done according to the manufacturer by performing a titration with increasing ADP^2 Antibody, fixed 4 nM ADP Alexa Fluor-633 Tracer, and 500 μM ATP to determine the ~EC80-85 for millipol (mP) changes, which determined the optimal ADP^2 Antibody concentration to use as 0.64 mg/ml (FIG. 9A). Samples are read with a Perkin Elmer Envision II plate reader with optimized Cy5 (far-red) FP-compatible mirror and cubes (cat #2100-8390, Perkin Elmer). The Low-FP sample is the least polarized and gives a low mP reading, while the High-FP sample is the most polarized and gives the highest mP reading. The difference between the Low-FP and High-FP values defines the FP assay window, which is normally in a range of 150-200 mP under ideal conditions for screening purposes. The hCMG helicase hydrolyzes ATP to ADP and decreases the mP reading within this window, with an ideal change (ΔmP) in the FP window of at least 50% to be in a readable range for inhibitor screening (as per manufacturer). Potential hCMG chemical inhibitors reverse this effect and cause the mP readings to increase.
# We performed a titration with increasing and decreasing concentrations of ADP and ATP, respectively, to assess the sensitivity of the FP assay in detecting ADP production (FIG. 9B). Consistent with the stated manufacturer predictions, the assay can reliably detect 1-3% changes in ADP production (i.e., 5-15 μM ADP production) in starting concentrations of ATP of 500 μM, with a Z′ efficiency between 0.6-0.8 (determined following manufacturer protocols).
# Once the hCMG enzyme reactions are complete, 10 μL of 1× Stop Solution and Detection Buffer (buffer from BellBrook Labs; containing 4 nM ADP Alexa Fluor-633 Tracer plus ADP^2 Antibody) are added to each reaction, and to the High-FP control. The Low-FP control receives 10 μL of 1× Stop Solution and Detection Buffer containing only 4 nM ADP Alexa Fluor-633 Tracer (no Antibody). Samples are incubated at 25° C. for 1 hr, then read in the plate reader. […] Plate readings from these tests of potential positive hits should be similar to that seen with the Low-FP control, or such hits may instead be false-positives.
# [5] = test system: T1, human CMG helicase (hCMG); conditions: role: substrate, cited from earlier work
# [6] = test system: T2, Nc1ncnc2c1ncn2[C@@H]1O[C@H](COP(=O)(O)OP(=O)(O)OP(=O)(O)O)[C@@H](O)[C@H]1O; test: hCMG helicase fork-unwinding (strand displacement) assay; assay type: biochemical, human; conditions: other: role: substrate
# T2 construct: made in house; host or cells: High Five insect cells, baculovirus (11 viruses co-infected)
# Method: as §1, §2, §3
compound,measurement,setting,value
O=C(NC1CCNCC1)c1[nH]ncc1NC(=O)c1c(Cl)cccc1Cl [AT7519],"phosphorylation of Cdk2 targets Rb, Cdc6 (S54P) and Cdk1 target PP1a",[1],blocks phosphorylation
CO[C@@H]1[C@@H](OC(=O)c2ccc(C)[nH]2)[C@@H](O)[C@H](Oc2ccc3c(O)c(NC(=O)c4ccc(O)c(CC=C(C)C)c4)c(=O)oc3c2Cl)OC1(C)C [clorobiocin],hCMG helicase inhibition in secondary strand-displacement assay,[2]; 500 μM compound,effective hCMG helicase inhibitors
same,growth suppression of solid tumor cell lines,[3],sensitive to similar low micromolar concentrations
same,inhibition of hCMG ATP hydrolysis,[4],effective nature of hCMG inhibition
Nc1ncnc2c1ncn2[C@@H]1O[C@H](COP(=O)(O)OP(=O)(O)OP(=O)(O)O)[C@@H](O)[C@H]1O [ATP],Vmax of the hCMG,"[2]; role: substrate, inhibitor CA1 2.5 μM present",without a change in the Vmax
same,Km,"[2]; role: substrate, no inhibitor, read-out: Km for ATP, fork-unwinding activity",690 µM
same,ATP hydrolysis rate of the human helicase,[5]; 500 μM ATP,−80 mol-ADP per minute per mol-hCMG
same,Km,"[5]; described by others, read-out: Km for hCMG ATP hydrolysis activity",625 µM
human CMG helicase (hCMG) (Homo sapiens),Km,[6]; inhibitor CA1 2.5 μM present,1550 µM
same,Km,[6]; no inhibitor,690 µM

# Source: US20260306641A1, “HELICASE DEGRADERS” (priority 2023, published 2026)
